This note sets out measurements from publication PMC11672294, “The Antipsychotic Drug Aripiprazole Suppresses Colorectal Cancer by Targeting LAMP2a to Induce RNH1/miR‐99a/mTOR‐Mediated Autophagy and Apoptosis” (Advanced Science, 2024).

Counter-ions that a name gives are not always drawn.

The test system of the first data set is HT29. As to conditions: 72 h, relative to DMSO, 10 µM, Relative cell viability (%). From the text:
To investigate the key signaling pathways and biological processes involved in CRC progression, we analyzed the National Center for Biotechnology Information Gene Expression Omnibus (GEO) dataset GSE115313, which included 42 CRC and paired normal tissues (Figure 1A). […] Next, we performed an Annexin V‐fluorescein isothiocyanate (FITC)/propidium iodide (PI) staining assay to determine the effect of aripiprazole on apoptosis in CRC cells. […] A) Principal component analysis of GEO dataset (GSE115313), which includes 42 CRC and paired normal tissues. B) Gene Ontology pathway analysis of the DEPs between CRC and paired normal tissues. […] D) Schematic diagram for identifying anticancer drugs amongst an US Food and Drug Administration‐approved small‐molecule library (616 compounds) using WST‐1 assay. E) HT29 cells were treated with the 616 drugs (10 µM) individually or with dimethyl sulfoxide for 72 h, followed by WST‐1 assay. […] J) Mice bearing HT29‐derived tumor xenografts were intragastrically administered with aripiprazole (10 or 20 mg kg^−1) once every 2 d, n = 6 mice/group. […] Bars, SD; ^* p < 0.05; ^** p < 0.01; ^*** p < 0.001; ns, no significant difference. The WST‐1 Cell Proliferation and Cytotoxicity Assay Kit (Beyotime Biotechnology, Shanghai, China) was used to measure cell viability, as described previously.^[ [10] ^] CRC cells were seeded into 96‐well plates and treated with different drug concentrations. Following that, WST‐1 was added to the plate and incubated with the cells for 2 h, at 37 °C. Absorbance at the wavelength of 450 nm was measured using an automated microplate spectrophotometer (BioTek Instruments, Winooski, VT, USA).
With `COc1ccc2nc([S@@+]([O-])Cc3ncc(C)c(OC)c3C)[nH]c2c1` [Esomeprazole Magnesium], the “Relative cell viability (%)” value was 80.51%.
Same read-out and setting: next, `CCOC(=O)C1=C(COCCN)NC(C)=C(C(=O)OC)C1c1ccccc1Cl` (stereo not drawn) [Amlodipine besylate (Norvasc)]: 75.42%.

The same data set, now with this note: 72 h, relative to DMSO; 10 µM.
Take `C[C@]12CCC(=O)C=C1[C@@H]1C[C@@H]1[C@H]1[C@@H]3[C@@H]4C[C@@H]4[C@@]4(CCC(=O)O4)[C@@]3(C)CC[C@@H]12` [Drospirenone]: the “Relative cell viability (%)” value was 86.76%.
As to `C=CC(=O)N1CCC[C@@H](n2nc(-c3ccc(Oc4ccccc4)cc3)c3c(N)ncnc32)C1` [Ibrutinib (PCI-32765)], the “Relative cell viability (%)” value was 53.4%.
The same measure, in the same setting: next, `Cc1cn([C@H]2O[C@@H](CO)[C@H](O)[C@H]2F)c(=O)[nH]c1=O` [Clevudine]: 97.09%.
Turning to `NC(N)=Nc1nc(CSCCC(N)=NS(N)(=O)=O)cs1` [Famotidine], the “Relative cell viability (%)” value was 119.6%.
Regarding `CCCCOc1ccc(CC(=O)NO)cc1` [Bufexamac], the “Relative cell viability (%)” value is 101.5%.
The same measure, in the same setting: with `CCOc1cc2ncc(C#N)c(Nc3ccc(OCc4ccccn4)c(Cl)c3)c2cc1NC(=O)/C=C/CN(C)C` [Neratinib (HKI-272)] the figure was 97.84%; with `Cn1c(=O)cc(N2CCC[C@@H](N)C2)n(Cc2ccccc2C#N)c1=O` [Alogliptin], 101.5%.
The same measure, in the same setting: next, `COC(=O)C1=C(C#N)NC(C)=C(C(=O)OC(C)C)C1c1cccc([N+](=O)[O-])c1` (stereo not drawn) [Nilvadipine]: 81.07%; `COc1cccc(-c2ccc(NC(=O)C3=C(C(=O)O)CCC3)c(F)c2)c1` [Vidofludimus]: 104.7%; `CCCCOc1cc(C(=O)OCCN(CC)CC)ccc1N` [Oxybuprocaine HCl]: 56.67%.
Regarding `C[C@H](CCC(=O)O)[C@H]1CC[C@H]2[C@@H]3[C@H](O)C[C@@H]4C[C@H](O)CC[C@]4(C)[C@H]3CC[C@]12C` [Chenodeoxycholic Acid], the “Relative cell viability (%)” value came out at 60.17%.
Same read-out and setting: with `CC(C(=O)O)c1cccc(Oc2ccccc2)c1` (stereo not drawn) [Fenoprofen Calcium] the figure was 99.58%; with `CC1CC(OC(=O)C(O)c2ccccc2)CC(C)(C)C1` (stereo not drawn) [Cyclandelate], 65.76%; with `CCOC(=O)[C@H](CCc1ccccc1)N[C@@H](C)C(=O)N1C(=O)N(C)C[C@H]1C(=O)O` [Imidapril HCl], 128.5%.
As to `CC[C@@H]1/C=C(\C)C[C@H](C)C[C@H](OC)[C@H]2O[C@@](O)(C(=O)C(=O)N3CCCC[C@H]3C(=O)O[C@H](/C(C)=C/[C@@H]3CC[C@H](Cl)[C@H](OC)C3)[C@H](C)[C@@H](O)CC1=O)[C@H](C)C[C@@H]2OC` [Pimecrolimus], the “Relative cell viability (%)” value is on record as 64.96%.
`Nc1ncnc2c1ncn2[C@@H]1O[C@H](CO)[C@@H](O)[C@@H]1O` [Vidarabine]: the “Relative cell viability (%)” value is reported as 74.15%.
The same measure, in the same setting: next, `CN(C)/N=N/c1[nH]cnc1C(N)=O` [Dacarbazine]: 91.43%.
On to `NC1=NCC2c3ccccc3Cc3ccccc3N12` (stereo not drawn) [Epinastine HCl], for which the “Relative cell viability (%)” value is recorded as 78.48%.
On the same count and under the same terms, next, `COC(=O)Nc1nc2ccc([S+]([O-])c3ccccc3)cc2[nH]1` (stereo not drawn) [Oxfendazole]: 57.63%; `COCCOC(=O)C1=C(C)NC(C)=C(C(=O)OC/C=C/c2ccccc2)C1c1cccc([N+](=O)[O-])c1` (stereo not drawn) [Cilnidipine]: 69.63%.
The same measure, in the same setting: with `CN(C)CCOC(C)(c1ccccc1)c1ccccn1` (stereo not drawn) [Doxylamine Succinate] the figure was 83.94%; with `O=c1oc2cc(O)ccc2s1` [Tioxolone], 114.6%.
`C/C(O)=C(\C#N)C(=O)Nc1ccc(C(F)(F)F)cc1` [Teriflunomide]: the “Relative cell viability (%)” value worked out at 75.76%.
Consider `CN(C)CCc1c[nH]c2ccc(CS(=O)(=O)N3CCCC3)cc12` [Almotriptan Malate], for which the “Relative cell viability (%)” value is reported as 113.8%.
In the case of `Cc1ccc2c(Cl)cc(Cl)c(O)c2n1` [Chlorquinaldol], the “Relative cell viability (%)” value turned out to be 41.21%.
The same measure, in the same setting: next, `CN/C(=N/CCSCc1nc[nH]c1C)NC#N` [Cimetidine]: 97.03%; `Cc1nc2c([nH]1)-c1ccccc1N(C(=O)c1ccc(NC(=O)c3ccccc3-c3ccccc3)cc1)CC2` [Conivaptan HCl]: 109%; `CC(C)=CCC/C(C)=C/CC/C(C)=C/CSc1ccccc1C(=O)O` [Salirasib]: 84.19%.
Same read-out and setting: next, `CCc1cc(C(N)=S)ccn1` [Ethionamide]: 62.71%; `C[N+](C)(C)C[C@H](O)CC(=O)[O-]` [L-carnitine]: 116.1%.
As to `CC(C)OC(=O)C(C)(C)Oc1ccc(C(=O)c2ccc(Cl)cc2)cc1` [Fenofibrate], the “Relative cell viability (%)” value was determined as 74.15%.
`O=c1c(-c2ccc(O)cc2)coc2cc(O)cc(O)c12` [Genistein]: the “Relative cell viability (%)” value is reported as 102.3%.
On to `CC[C@H](C)C(=O)O[C@H]1CCC=C2C=C[C@H](C)[C@H](CC[C@@H]3C[C@@H](O)CC(=O)O3)[C@H]21` [Mevastatin], for which the “Relative cell viability (%)” value was 86.67%.
On the same count and under the same terms, next, `C[C@@H]1COC(Nc2ccc3ncnc(Nc4ccc(OCc5nccs5)c(Cl)c4)c3c2)=N1` [Varlitinib]: 111.6%; `CCOC(=O)C1=C[C@@H](OC(CC)CC)[C@H](NC(C)=O)[C@@H](N)C1` [Oseltamivir Phosphate]: 60.68%.
As for `CN(C)Cc1ccc(S(=O)(=O)n2ccc(/C=C/C(=O)NO)c2)cc1` [Resminostat], the “Relative cell viability (%)” value amounted to 19.9%.
As to `O=c1sn(-c2cccc3ccccc23)c(=O)n1Cc1ccccc1` [Tideglusib], the “Relative cell viability (%)” value is given as 51.94%.
On the same count and under the same terms, next, `O=C(O)CCNC(=O)c1ccccc1` [Betamipron]: 90.303%; `CN(C)CCN1C(=O)c2cccc3cc(N)cc(c23)C1=O` [Amonafide]: 8.879%; `Clc1ccc(C(Cn2ccnc2)OCc2ccc(Sc3ccccc3)cc2)c(Cl)c1` (stereo not drawn) [Fenticonazole Nitrate]: 58.4%.
In the case of `O=C(O)c1cc(-c2ccccc2)nc2ccccc12` [Cinchophen], the “Relative cell viability (%)” value is reported as 89.39%.
In the case of `COC(=O)Nc1nc2cc(C(=O)c3ccc(F)cc3)ccc2[nH]1` [Flubendazole], the “Relative cell viability (%)” value came to 16.95%.
Same read-out and setting: with `COc1c(N2CCNC(C)C2)c(F)cc2c(=O)c(C(=O)O)cn(C3CC3)c12` (stereo not drawn) [Gatifloxacin] the figure was 96.11%.
Still for that read-out and setting: next, `C/C(=C\c1csc(C)n1)[C@@H]1C[C@@H]2O[C@]2(C)CCC[C@H](C)[C@H](O)[C@@H](C)C(=O)C(C)(C)[C@@H](O)CC(=O)O1` [Epothilone B (EPO906, Patupilone)]: 7.321%; `CN1CCC(=C2c3ccccc3C=Cc3ccccc32)CC1` [Cyproheptadine HCl]: 44.58%.
Take `CC(=O)O[C@@]12CO[C@@H]1C[C@H](O)[C@@]1(C)C(=O)[C@H](O)C3=C(C)[C@@H](OC(=O)[C@H](O)[C@@H](NC(=O)OC(C)(C)C)c4ccccc4)C[C@@](O)([C@@H](OC(=O)c4ccccc4)[C@H]21)C3(C)C` [Docetaxel Trihydrate]: the “Relative cell viability (%)” value was determined as 23.93%.
Still for that read-out and setting: with `Cn1c(=O)cc(N2CCC[C@@H](N)C2)n(Cc2cc(F)ccc2C#N)c1=O` [Trelagliptin] the figure was 63.68%.
Same read-out and setting: with `CC(C)[C@H]1C(=O)N[C@@H](CCCN=C(N)N)C(=O)NCC(=O)N[C@@H](CC(=O)O)C(=O)N[C@H](Cc2ccccc2)C(=O)N1C` [Cilengitide] the figure was 61.11%; with `CCCc1nn(C)c2c(=O)[nH]c(-c3cc(S(=O)(=O)N4CCN(C)CC4)ccc3OCC)nc12` [Sildenafil Mesylate], 91.88%; with `Cc1ccc(C(=O)C(C)CN2CCCCC2)cc1` (stereo not drawn) [Tolperisone HCl], 89.39%.
Regarding `CCCCCCCCc1ccc(CCC(N)(CO)CO)cc1` [Fingolimod (FTY720) HCl], the “Relative cell viability (%)” value amounted to 0%.
Turning to `Cc1ccc(Nc2nccc(N(C)c3ccc4c(C)n(C)nc4c3)n2)cc1S(N)(=O)=O` [Pazopanib], the “Relative cell viability (%)” value came to 46.12%.
Regarding `O=c1oc2c(O)c(O)cc3c(=O)oc4c(O)c(O)cc1c4c23` [Ellagic acid], the “Relative cell viability (%)” value was 74.3%.
On to `CCN(CC)CCOC(=O)C(c1ccccc1)c1ccccc1` [Adiphenine HCl], for which the “Relative cell viability (%)” value came out at 119.6%.

The data set is the same for the next values; noted with them: ht29 cells, 72 h, 10 µM.
In the case of `CCc1c(Cl)c(O)c(Cl)c(O)c1C(=O)O[C@H]1[C@H](O)[C@H](OC)[C@H](OC/C2=C\C=C\C[C@H](O)/C(C)=C/[C@H](CC)[C@@H](O[C@@H]3OC(C)(C)[C@@H](OC(=O)C(C)C)[C@H](O)[C@@H]3O)/C(C)=C/C(C)=C/C[C@@H]([C@@H](C)O)OC2=O)O[C@@H]1C` [Fidaxomicin], the “Relative cell viability (%)” value came out at 94.85%.
